In patent publication US20240009190A1, “COMBINATION CANCER THERAPY USING CHK INHIBITOR” (SHANGHAI HUAYU BIOTECHNOLOGY CO., LTD., priority 2020, published 2024):

Tests used:
[1] = Mice body weight in CT-26 WT tumor model (Example 2); format: in vivo, BALB/c female mice; details: for Average body weight: compounds 15 mg/kg tail vein once per day, anti-m-PD-1 10 mg/kg IP once every five days; for average mice weight, tumor weight deducted: compounds 15 mg/kg, anti-m-PD-1 10 mg/kg
Procedure: (§1) Mice were observed every day for their physical conditions and activities, and mice body weight and tumor volume were measured every Tuesday, Thursday and Sunday. The tumor volume (V) was calculated as (length×width^2)/2.
(§2) At Day 23, mice were subject to euthanasia, from which tumors were collected, weighed and photographed. Mice body weights, tumor sizes and tumor weights were analyzed using the t-test in SPSS, and group differences were deemed statistically significant when the p-value was 0.05 or less. Tumor weight based tumor growth inhibition (TGI) and Zheng-Jun Jin's Q value were calculated.

[2] = tested on: CT-26 WT cells; assay: CT-26 WT subcutaneous tumor model, CHK inhibitors at lower dose with anti-m-PD-1 antibody (Example 2); format: in vivo, BALB/c female mice; details: for Average tumor size: compounds 15 mg/kg tail vein once per day, anti-m-PD-1 10 mg/kg IP once every five days; for Tumor weight based TGI: compounds 15 mg/kg, anti-m-PD-1 10 mg/kg; for Tumor weight, Average: group average of 8 mice; for Tumor weight, Mouse no. 1 / Tumor weight, Mouse no. 2 / Tumor weight, Mouse no. 3 / Tumor weight, Mouse no. 4 / Tumor weight, Mouse no. 5 / Tumor weight, Mouse no. 6 / Tumor weight, Mouse no. 7 / Tumor weight, Mouse no. 8: individual mouse
Procedure: The anti-tumor effect of Compound 6 at a lower dose in combination with an anti-PD-1 antibody was studied in this Example. Further, three compounds obtained by structurally modifying Compound 6, i.e., Compound 6-1, Compound 6-2 and Compound 6-3, were tested alone or in combination with an anti-PD-1 antibody for their anti-tumor effects.
At Day 0, 105 BALB/c female mice, 4-5 weeks old, were subcutaneously injected with about 200.0 μL of the CT-26 WT cell medium containing about 5×10^5 cells, respectively.
At Day 5, 80 tumor-bearing mice were randomly assigned to ten groups according to their body weights, 8 mice per group. The remaining mice were subject to euthanasia.
The ten groups of animals were administered with an anti-m-PD-1 antibody (BE0146, BioXcell) in PBS (21-040-CVR, BioXcell) at 1.0 mg/mL, Compound 6 in saline at 1.5 mg/mL, Compound 6-1 in saline at 1.5 mg/mL, Compound 6-2 in saline at 1.5 mg/mL, Compound 6-3 in saline at 1.5 mg/mL, the anti-m-PD-1 antibody+Compound 6, the anti-m-PD-1 antibody+Compound 6-1, the anti-m-PD-1 antibody+Compound 6-2, the anti-m-PD-1 antibody+Compound 6-3, and the control vehicle (saline), respectively, at doses shown in Table 3 below.
as §1, §2

[3] = tested on: MC38 cells; assay: MC38 tumor model in transgenic mice, Compound 6, anti-PD-1 antibody and gemcitabine (Example 5); format: in vivo, C57BL/6-Pdcd1^em(hPDCD1) Cd274^em1(hPD-L1)/Smoc mice; details: Day 23; Compound 6 15 mg/kg IP QD × 14; GEM 20 mg/kg IV QW × 2; anti-PD-1 10 mg/kg IP Q5D × 3
Procedure: MC38 cells were maintained at 37° C. in 5% CO2 in RPMI 1640 medium (10-040-CV, Corning cellgro) supplemented with 10% FBS (10270-106, GIBCO) and used before the 10th subculture.
Female C57BL/6-Pdcd1^em(hPDCD1) Cd274^em1(hPD-L1)/Smoc mice (Shanghai Model Organisms), 20-25 g, were subcutaneously injected with about 5×10^5 MC38 cells, respectively.
When tumors grew to 50-70 mm^3, these mice were randomly assigned to 8 groups, 8 mice per group, this day was at Day 9. From Day 9, the animals were administered with gemcitabine (GEM) in saline at 20 mg/mL, an anti-PD-1 antibody (Toripalimab, Shanghai Junshi Biosciences Co., Ltd. China) in saline at 40 mg/mL, Compound 6 in saline at 8 mg/mL, Compound 6+gemcitabine, gemcitabine+anti-PD-1, Compound 6+anti-PD-1, Compound 6+gemcitabine+anti-PD-1, and the control vehicle (5% GS), respectively, according to the dosing regimen shown in Table 11 below.
Mice were observed every day for their physical conditions and activities, and mice body weight and tumor volume were measured every other day. The tumor volume (V) was calculated as (length×width^2)/2.
Mice body weights, and tumor sizes were analyzed using the t-test in SPSS, and group differences were deemed statistically significant when the p-value was 0.05 or less.
Tumor growth inhibition (TGI) was calculated by the following formula. Tumor growth inhibition=(average tumor size in vehicle group-average tumor size in administration group)/average tumor size in vehicle group×100%
Zheng-Jun Jin's Q value was calculated as described above.

| SMILES | Average body weight ([1]; Day 9) [g] | Average body weight ([1]; Day 10) [g] | Average body weight ([1]; Day 12) [g] | Average body weight ([1]; Day 14) [g] | Average body weight ([1]; Day 16) [g] | Average body weight ([1]; Day 18) [g] | Average body weight ([1]; Day 20) [g] | Average body weight ([1]; Day 22) [g] | Average body weight ([1]; Day 23) [g] | average mice weight, tumor weight deducted ([1]; Day 23) [g] | Average tumor size ([2]; Day 9) [mm^3] | Average tumor size ([2]; Day 10) [mm^3] | Average tumor size ([2]; Day 12) [mm^3] | Average tumor size ([2]; Day 14) [mm^3] | Average tumor size ([2]; Day 16) [mm^3] | Average tumor size ([2]; Day 18) [mm^3] | Average tumor size ([2]; Day 20) [mm^3] | Average tumor size ([2]; Day 22) [mm^3] | Average tumor size ([2]; Day 23) [mm^3] | Tumor weight based TGI ([2]; Day 23) [%] | also measured |
| --- | --- | --- | --- | --- | --- | --- | --- | --- | --- | --- | --- | --- | --- | --- | --- | --- | --- | --- | --- | --- | --- |
| NC(=O)c1nnc(SC2CCCNC2)c2cc(-c3cccc(F)c3)sc12 (stereo not shown) [Compound 6-2, 2-(3-fluorophenyl)-4-(3-piperidinylthio)-thieno[2,3-d]pyridazine-7-carboxylic acid amide] | 16.45 | 16.69 | 16.78 | 17.22 | 17.62 | 18.05 | 18.67 | 19.14 | 19.63 | 18.04 | 196.37 | 278.84 | 391.83 | 570.64 | 698.18 | 805.13 | 974.34 | 1196.22 | 1334.63 | 43.82 | Tumor weight, Average ([2]; Day 23): 1.59 g; Tumor weight, Mouse no. 1 ([2]; Day 23): 0.84 g; Tumor weight, Mouse no. 2 ([2]; Day 23): 1.58 g; Tumor weight, Mouse no. 3 ([2]; Day 23): 0.84 g; Tumor weight, Mouse no. 4 ([2]; Day 23): 2.56 g; Tumor weight, Mouse no. 5 ([2]; Day 23): 1.78 g; Tumor weight, Mouse no. 6 ([2]; Day 23): 2.12 g; Tumor weight, Mouse no. 7 ([2]; Day 23): 0.89 g; Tumor weight, Mouse no. 8 ([2]; Day 23): 2.11 g |
| NC(=O)c1nnc(OC2CCCNC2)c2cc(-c3cccc(F)c3)sc12 (stereo not shown) [Compound 6-1, 2-(3-fluorophenyl)-4-(3-piperidinyloxy)-thieno[2,3-d]pyridazine-7-carboxylic acid amide] | 16.29 | 16.75 | 16.89 | 17.18 | 17.79 | 17.99 | 18.32 | 18.57 | 19.31 | 17.77 | 171.59 | 257.64 | 367.95 | 550.08 | 677.06 | 780.61 | 972.02 | 1062.24 | 1179.61 | 45.63 | Tumor weight, Average ([2]; Day 23): 1.54 g; Tumor weight, Mouse no. 1 ([2]; Day 23): 0.87 g; Tumor weight, Mouse no. 2 ([2]; Day 23): 1.19 g; Tumor weight, Mouse no. 3 ([2]; Day 23): 2.32 g; Tumor weight, Mouse no. 4 ([2]; Day 23): 2.87 g; Tumor weight, Mouse no. 5 ([2]; Day 23): 1.58 g; Tumor weight, Mouse no. 6 ([2]; Day 23): 1.68 g; Tumor weight, Mouse no. 7 ([2]; Day 23): 1.31 g; Tumor weight, Mouse no. 8 ([2]; Day 23): 0.49 g |
| Nc1ccn([C@@H]2O[C@H](CO)[C@@H](O)C2(F)F)c(=O)n1 [GEM, gemcitabine, reference compound] | – | – | – | – | – | – | – | – | – | – | – | – | – | – | – | – | – | – | – | – | TGI based on tumor sizes [3]: 30.02% |
| NC(=O)c1nnc(CC2CCCNC2)c2cc(-c3cc(Cl)cc(Cl)c3)sc12 (stereo not shown) [Compound 6-3, 2-(3,5-dichlorophenyl)-4-(3-piperidinemethyl)-thieno[2,3-d]pyridazinyl-7-formamide] | 15.99 | 16.25 | 16.51 | 17.26 | 17.91 | 18.13 | 18.75 | 19.38 | 20.06 | 18.16 | 162.03 | 282.00 | 417.93 | 527.17 | 718.27 | 828.07 | 1072.57 | 1334.48 | 1558.87 | 32.73 | Tumor weight, Average ([2]; Day 23): 1.90 g; Tumor weight, Mouse no. 1 ([2]; Day 23): 2.85 g; Tumor weight, Mouse no. 2 ([2]; Day 23): 1.24 g; Tumor weight, Mouse no. 3 ([2]; Day 23): 2.76 g; Tumor weight, Mouse no. 4 ([2]; Day 23): 1.31 g; Tumor weight, Mouse no. 5 ([2]; Day 23): 1.97 g; Tumor weight, Mouse no. 6 ([2]; Day 23): 1.03 g; Tumor weight, Mouse no. 7 ([2]; Day 23): 3.12 g; Tumor weight, Mouse no. 8 ([2]; Day 23): 0.95 g |
